Experimental data as given in US6733996B2, “Methods for regulating gene expression using light” (Trustees of Dartmouth College, priority 2002, dated 2004).

Target: T1, WC-1/WC-2 (White Collar Complex) (Neurospora crassa, UniProt Q01371)
T1 construct: in vitro transcribe/translate full-length WC-1 using pAF60 as template and full length WC-2 using pGEM®/WC-2 as template; made in house; host or cells: cell-free: TNT-Coupled Reticulocyte Lysate system (Promega), templates pAF60 (WC-1) and pGEM/WC-2
Experiment: Electrophoretic mobility shift assay of in vitro-translated WC-1 and WC-2 binding to frq LRE probe, with or without flavin cofactor and light
Settings: for Average amount of faster migrating complex ± SEM / Average amount of slower migrating complex ± SEM: +FAD (1 mM in translation reaction), in vitro-translated WC-1 and WC-2, densitometry; for Light regulation of LRE binding of in vitro-translated WC-1/WC-2: flavin added to the WC-1 translation reaction, 1 mM
Procedure: In vitro coupled transcription/translation was conducted to produce WC-1 and WC-2 proteins for subsequent use in binding reactions. WC-1 and WC-2 together were able to bind to the LREs as not just one, but two distinct complexes with mobilities similar to those seen using nuclear extracts. […] These complexes were not seen when either protein was used alone or when unprogrammed lysate was used.
In vitro translation experiments and subsequent binding reactions were repeated, this time adding FMN or flavin adenine dinucleotide (FAD) to the WC-1 translation reaction. FAD is the flavin cofactor for both the blue light-sensing cryptochromes (Cashmore, et al. (1999) Science 284:760) and the Euglena photoactivated adenyl cyclase (Iseki, et al. (2001) Nature 415:1047).
When FAD was combined with WC-1 and WC-2, light caused a marked increase in the amount of slower migrating complex relative to the reactions not treated with light. Furthermore, a marked increase in the slower migrating complex was observed, as compared to reactions lacking FAD treated with or without light. […] The addition of FAD confers light responsiveness to the WCC, similar to that seen with the nuclear extracts. In the dark, a faster migrating WC-1/WC-2 dimeric complex dominates, yielding in the presence of light to a larger, slower migrating WC-1/WC-2 multimeric complex. WC-1 with FAD, exposed to light in the absence of WC-2, can initiate the mobility shift when subsequently combined in the dark with WC-2. Furthermore, WC-1 can be reconstituted with free FAD after in vitro translation. Thus, it is WC-1 that is the initial active protein partner in mediating the photoresponse.
The probes consisted of two oligonucleotides of equal length annealed together and end-labeled using T4 polynucleotide kinase and [^γ-32P]ATP. Unincorporated ATP was removed using a BIO-GEL® P-30 chromatography column (BIO-RAD®, Hercules, Calif.), and probe was diluted to a final concentration of 0.018 μM. Oligonucleotide pairs were annealed for use as probe or unlabeled competitor. Distal LRE probe, the unrelated 42 bp competitor, and the mutated distal LRE competitor were generated with oligonucleotide pairs ACF57/ACF58, ACF40/ACF48 and ACF67/ACF68, respectively. The proximal LRE probe and mutated proximal LRE competitor were generated with oligonucleotide pairs ACF62/ACF63 and ACF69/ACF70, respectively.
Binding reactions using nuclear protein extracts contained 1× binding buffer, […], 0.1 μg poly(dI-dC), 1 μl probe, 0.5 μl of normal rabbit sera (Pocono Rabbit Farm, Canadensis, Pa.), and 3 μg of nuclear protein extract, which was added last to the binding reactions, in a total volume of 20 μl. In reactions that contained antisera, 1 μl anti-WC-1, 1 μl anti-WC-2, or 0.5 μl anti-FRQ was used. Binding reactions using in vitro translated proteins contained 1× binding buffer, 1 μg poly(dI-dC), 1 μl probe, and 6 μl of the in vitro translation reaction in a total volume of 20 μl . Binding reactions were incubated for 30 minutes on ice prior to electrophoresis at 4° C. on nondenaturing 4% polyacrylamide gels containing 0.5×TBE and 2.5% (v/v) glycerol. Gels were dried and visualized using a PhosphorImager and IMAGEQUANT® software (Molecular Dynamics, Sunnyvale, Calif.). Binding reactions and gel electrophoreses were performed under red lights.
TNT®-Coupled Reticulocyte Lysate system (PROMEGA®, Madison, Wis.) was used according to the manufacturer's directions to in vitro transcribe/translate full-length WC-1 using pAF60 as template and full length WC-2 using pGEM®/WC-2 as template. 8 μM ZnCl2 was added to each reaction. Where indicated, FAD (SIGMA®, St. Louis, Mo.) and FMN (SIGMA®, St. Louis, Mo.) were added to a final concentration of 1 mM. Reactions were conducted under red lights.

T1 sequence (Q01371 whole entry): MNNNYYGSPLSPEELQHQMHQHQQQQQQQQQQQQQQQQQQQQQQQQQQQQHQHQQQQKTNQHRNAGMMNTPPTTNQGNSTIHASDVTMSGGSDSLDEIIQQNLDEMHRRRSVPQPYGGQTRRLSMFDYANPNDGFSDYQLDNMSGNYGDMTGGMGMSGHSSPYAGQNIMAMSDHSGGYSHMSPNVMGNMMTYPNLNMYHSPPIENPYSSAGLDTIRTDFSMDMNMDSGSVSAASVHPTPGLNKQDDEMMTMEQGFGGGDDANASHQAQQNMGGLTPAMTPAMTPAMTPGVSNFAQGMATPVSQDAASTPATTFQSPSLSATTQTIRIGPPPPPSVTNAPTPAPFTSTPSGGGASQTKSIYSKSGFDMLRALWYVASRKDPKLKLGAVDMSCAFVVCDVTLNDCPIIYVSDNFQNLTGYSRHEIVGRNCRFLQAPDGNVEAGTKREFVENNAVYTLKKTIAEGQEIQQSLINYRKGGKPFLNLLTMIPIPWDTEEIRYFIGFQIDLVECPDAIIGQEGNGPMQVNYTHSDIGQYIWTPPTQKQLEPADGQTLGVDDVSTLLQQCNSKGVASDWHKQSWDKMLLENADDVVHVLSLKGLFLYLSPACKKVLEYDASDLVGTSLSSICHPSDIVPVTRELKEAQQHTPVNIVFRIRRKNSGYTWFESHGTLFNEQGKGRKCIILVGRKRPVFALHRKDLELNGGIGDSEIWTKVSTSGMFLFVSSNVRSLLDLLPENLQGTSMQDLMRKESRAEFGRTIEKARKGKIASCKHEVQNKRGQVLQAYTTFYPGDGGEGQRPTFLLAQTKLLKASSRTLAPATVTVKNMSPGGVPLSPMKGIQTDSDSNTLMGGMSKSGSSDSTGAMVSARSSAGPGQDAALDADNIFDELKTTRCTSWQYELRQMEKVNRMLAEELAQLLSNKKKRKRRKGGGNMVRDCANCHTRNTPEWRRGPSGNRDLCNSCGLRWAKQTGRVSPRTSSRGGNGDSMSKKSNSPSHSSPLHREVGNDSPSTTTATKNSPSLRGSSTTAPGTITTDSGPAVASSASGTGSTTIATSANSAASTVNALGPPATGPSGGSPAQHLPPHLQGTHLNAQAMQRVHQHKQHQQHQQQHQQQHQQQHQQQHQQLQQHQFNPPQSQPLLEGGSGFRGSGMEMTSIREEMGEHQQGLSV
T1 sequence (P78714 whole entry, further chain): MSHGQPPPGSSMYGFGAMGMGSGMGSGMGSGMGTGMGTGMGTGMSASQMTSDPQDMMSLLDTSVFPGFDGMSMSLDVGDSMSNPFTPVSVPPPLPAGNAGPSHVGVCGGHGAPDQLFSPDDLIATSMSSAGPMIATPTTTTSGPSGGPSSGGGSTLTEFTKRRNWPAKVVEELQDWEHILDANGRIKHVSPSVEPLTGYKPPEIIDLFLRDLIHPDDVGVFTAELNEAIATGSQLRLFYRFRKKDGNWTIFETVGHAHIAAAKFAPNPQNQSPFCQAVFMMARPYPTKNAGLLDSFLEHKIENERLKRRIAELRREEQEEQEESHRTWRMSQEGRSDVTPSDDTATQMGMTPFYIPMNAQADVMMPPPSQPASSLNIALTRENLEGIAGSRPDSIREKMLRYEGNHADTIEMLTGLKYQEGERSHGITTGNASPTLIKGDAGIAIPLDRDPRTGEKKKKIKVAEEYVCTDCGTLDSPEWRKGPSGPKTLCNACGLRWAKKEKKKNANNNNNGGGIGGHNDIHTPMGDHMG

| Compound | Average amount of faster migrating complex ± SEM (Dark) | Average amount of slower migrating complex ± SEM (Dark) | Average amount of faster migrating complex ± SEM (Light) | Average amount of slower migrating complex ± SEM (Light) | Light regulation of LRE binding of in vitro-translated WC-1/WC-2 |
| --- | --- | --- | --- | --- | --- |
| Cc1cc2nc3c(=O)[nH]c(=O)nc-3n(C[C@H](O)[C@H](O)[C@H](O)COP(=O)(O)OP(=O)(O)OC[C@H]3O[C@@H](n4cnc5c(N)ncnc54)[C@H](O)[C@@H]3O)c2cc1C [FAD, flavin adenine dinucleotide] | 334119 ± 43086 | 56912 ± 3055 | 264723 ± 22687 | 237163 ± 9706 | conferred light sensitivity |
| Cc1cc2nc3c(=O)[nH]c(=O)nc-3n(C[C@H](O)[C@H](O)[C@H](O)COP(=O)(O)O)c2cc1C [FMN, flavin mononucleotide] | – | – | – | – | No light regulation of binding |
